The target in one assay is HLA-DRB1*0301 (DR3) (Homo sapiens, UniProt P01903+P01911, A100K/A102G/A103R/A169T/F55Y/I96L/K41T/L162R/M171V/P40S/Q125H/Q178H/Q39Y/R42S/S66N/T106N/T262R/W38E/Y61H). In words: HLA class II binding assay, DRB1*0301 (DR3). The conditions noted are these: read-out: DR3 binding affinity.
For the next assay, the target named is HLA-A*3301 (Homo sapiens, UniProt P04439, A270S/D185E/E176V/E277Q/E87N/F33T/G231S/H175R/I121M/I218V/I322F/K168Q/K210R/L300P/L318F/M331R/P217A/Q86R/Q94H/R138Q/T323A/T345S/T97I/V358M/Y195H). Kind of assay: HLA class I binding assay, purified HLA-A*3301. The conditions noted are these: Table XXIII, binding affinity.
The next assay has as its target HLA-A*6801 (Homo sapiens, UniProt P04439, A269V/D185E/E176V/E277Q/E87N/F33Y/G231S/I121M/I166T/I218V/L180W/L300P/L318F/N151K/P208A/P217A/Q86R/R169H/T345S). In words: HLA class I binding assay, purified HLA-A*6801. Conditions: Table XXIII, binding affinity.
A further assay addresses HLA-A*1101 (Homo sapiens, UniProt P04439, A114D/D185E/E176A/F33Y/L180Q/S129P/T187R). Kind of assay: HLA class I binding assay, purified HLA-A*1101. Conditions: Table XXIII, binding affinity.
A further assay concerns the target HLA-A*0301 (Homo sapiens, UniProt P04439). In words: HLA class I binding assay, purified HLA-A*0301. The conditions noted are these: Table XXIII, binding affinity.
The subject of assay [1] is .221A2.1 cells pulsed with peptide. Kind of assay: Primary in vitro CTL induction, 51Cr release against peptide-pulsed targets. Conditions: number of donors yielding a positive response/total tested. The assay is classed as cell-based, human. The protocol: (§1) The colon adenocarcinoma cell lines SW403 and […], the osteosarcoma line Saos-2 and the breast tumor line BT540 were obtained from the American Type Culture Collection (ATCC) (Rockville, Md.). The gastric cancer line, KATO III was obtained from the Japanese Cancer Research Resources Bank. […] The melanoma, colon and gastric cancer cells were treated with 100 U/ml IFN (Genzyme) for 48 hours at 37° C. before use as targets in the ^51Cr release and in situ IFN assays.
The monocytes were purified by plating 10×10^6 PBMC/well in a 6-well plate. After 2 hours at 37° C., the non-adherent cells were removed by gently shaking the plates and aspirating the supernatants. The wells were washed a total of three times with 3 ml RPMI to remove most of the non-adherent and loosely adherent cells. Three ml of complete medium containing 50 ng/ml of GM-CSF and 1,000 U/ml of IL-4 were then added to each well. […]
Induction of CTL with DC and Peptide: CD8+ T-cells were isolated by positive selection with Dynal immunomagnetic beads (Dynabeads® M-450) and the detacha-bead® reagent. […] The DC were collected and centrifuged at 1300 rpm for 5-7 minutes, washed once with PBS with 1% BSA, counted and pulsed with 40 μg/ml of peptide at a cell concentration of 1-2×10^6/ml in the presence of 3 μg/ml β2-microglobulin for 4 hours at 20° C. The DC were then irradiated (4,200 rads), washed 1 time with medium and counted again. […]

In assay [2] the test system is tumor targets that endogenously express CEA (SW403, HT-20, KATO III). In words: 51Cr release against tumor targets (endogenous recognition). The assay is classed as cell-based, human. The conditions noted are these: number of donors yielding a positive response/total tested. Here is the method: as §1
Restimulation of the induction cultures with peptide-pulsed adherent cells: Seven and fourteen days after the primary induction the cells were restimulated with peptide-pulsed adherent cells. […] After expansion, activity was measured in both assays for a side by side comparison.
Seven days after the second restimulation, cytotoxicity was determined in a standard (5 hr) ^51Cr release assay by assaying individual wells at a single E:T. Peptide-pulsed targets were prepared by incubating the cells with 10 μg/ml peptide overnight at 37° C.
Adherent target cells were removed from culture flasks with trypsin-EDTA. […] At that time, 100 μl of supernatant were collected from each well and percent lysis was determined according to the formula: [(cpm of the test sample−cpm of the spontaneous ^51Cr release sample)/(cpm of the maximal ^51Cr release sample-cpm of the spontaneous ^51Cr release sample)]×100. […]

Sequence of HLA-A*1101 (P04439 25-365 limits assumed, stated change not applied): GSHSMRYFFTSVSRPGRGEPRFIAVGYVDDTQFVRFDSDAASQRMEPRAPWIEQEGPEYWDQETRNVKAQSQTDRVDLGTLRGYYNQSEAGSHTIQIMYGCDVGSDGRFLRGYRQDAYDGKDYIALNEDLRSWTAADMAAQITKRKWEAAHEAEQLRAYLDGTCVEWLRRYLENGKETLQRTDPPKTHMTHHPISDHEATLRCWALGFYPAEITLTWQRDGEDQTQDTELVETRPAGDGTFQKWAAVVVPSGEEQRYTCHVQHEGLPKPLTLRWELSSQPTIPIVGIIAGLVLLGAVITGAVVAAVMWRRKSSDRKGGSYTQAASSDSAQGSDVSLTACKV
Sequence of HLA-DRB1*0301 (DR3) (P01903 26-254 limits assumed, other chains not shown): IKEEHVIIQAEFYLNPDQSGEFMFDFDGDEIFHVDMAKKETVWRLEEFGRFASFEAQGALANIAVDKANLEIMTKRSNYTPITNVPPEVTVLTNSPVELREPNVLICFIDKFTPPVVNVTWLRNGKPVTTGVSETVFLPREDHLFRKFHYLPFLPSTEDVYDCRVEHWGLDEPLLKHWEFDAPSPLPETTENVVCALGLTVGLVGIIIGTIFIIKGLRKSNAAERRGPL
Description for HLA-DRB1*0301 (DR3): Conversely, The DR supertype cross-reactive binding peptides were also tested for DR3 binding capacity.

With `CC[C@H](C)[C@H](NC(=O)[C@@H](NC(=O)[C@H](Cc1c[nH]cn1)NC(=O)[C@@H](N)CC(C)C)C(C)C)C(=O)N[C@@H](CCCCN)C(=O)N[C@@H](CO)C(=O)N[C@@H](CC(=O)O)C(=O)N[C@@H](CC(C)C)C(=O)N[C@H](C(=O)N[C@@H](CC(N)=O)C(=O)N[C@@H](CCC(=O)O)C(=O)N[C@@H](CCC(=O)O)C(=O)N[C@@H](C)C(=O)N[C@H](C(=O)NCC(=O)O)[C@@H](C)O)C(C)C` [CEA.122], the IC50 on HLA-DRB1*0301 (DR3) is 2.31 µM.

Regarding `CC(C)[C@H](NC(=O)[C@@H](N)[C@@H](C)O)C(=O)N[C@@H](CO)C(=O)N1CCC[C@H]1C(=O)N[C@@H](CO)C(=O)N[C@@H](Cc1ccc(O)cc1)C(=O)N[C@H](C(=O)N[C@@H](Cc1ccc(O)cc1)C(=O)N[C@@H](Cc1ccc(O)cc1)C(=O)N[C@@H](CCCNC(=N)N)C(=O)O)[C@@H](C)O` [CEA.419.V2], the IC50 at HLA-A*3301 stood at 0.264 µM; at HLA-A*6801, 0.0086 µM; at HLA-A*1101, 3 µM; on HLA-A*0301, 2.34 µM.

Take `CC(C)C[C@H](NC(=O)[C@H](CC(N)=O)NC(=O)[C@H](CC(C)C)NC(=O)[C@H](CC(N)=O)NC(=O)[C@H](C)NC(=O)CNC(=O)[C@H](CO)NC(=O)[C@H](CC(C)C)NC(=O)[C@@H](N)Cc1ccc(O)cc1)C(=O)O` [compound 605]: the “CTL Wildtype” value in assay [1] (Table XXVIIa) is on record as 2/2. In assay [1] (Table XXVIIb), the “CTL Wild-type” value is 2/2. The “CTL Tumor” value in assay [2] (Table XXVIIa) and in assay [2] (Table XXVIIb) was 1/2 each time.

Source of the values: patent US20040146519A1, “Inducing cellular immune responses to carcinoembryonic antigen using peptide and nucleic acid compositions” (priority 2002, published 2004).
